Data taken from patent US8426408B2, “Pyrimidine inhibitors of kinases” (AbbVie Inc., priority 2009, dated 2013).

Experiments:
[1] = target: T1, KDR (Homo sapiens, UniProt P35968); test: KDR cellular assay (KDR receptor phosphorylation ELISA); type: cell-based; parameters: expressed in transfected cells; host or cells: 3T3 (embryonic mouse) cells; settings: KDR transfected 3T3 (embryonic mouse) cells, VEGF stimulated; read-out: IC50 inhibition of KDR phosphorylation
Experimental: The ability of compounds to inhibit KDR receptor phosphorylation in cells was measured by ELISA following the protocol outlined below.
KDR transfected 3T3 (embryonic mouse) cells added to 96-well tissue culture plates at 20,000 cells/well.
Plates were covered and placed in a 37° C. humidified incubator with 5% CO2 overnight, to allow cells to adhere.
Coating solution was prepared: 500 l/vial PBS was added to 2 vials of anti-KDR antibody, then 1 ml solubilized anti-KDR antibody into 29.0 ml bicarbonate buffer. Coating solution was added to all wells at 150 µl/well (final amount anti-KDR=1 µg/well) and placed at 4° C. overnight.
Blocking solution (2.1 g dry milk+42 ml PBS=5% milk in PBS) was placed on a stir plate for 30 min.
Assay plates were washed twice with PBST, and 200 µl/well blocking solution was added to all wells. Assay plates were covered with plate sealers and placed in a 37° C. microplate chamber until just before cell lysate transfer.
Compound stocks were thawed or prepared in DMSO as 5 mM stocks.
Dilution medium (DM, 1% DMSO in DMEM) and compounds were diluted by half-log increments for concentration response analysis.
Conditioned media was dumped from the tissue culture plates, and plates were blotted dry.
Standard solution in DM, compound dilutions in DM, or DM (for high control, negative control, and reference wells) were added to the tissue culture plates, 25 µl/well. Each pair of tissue culture plates was prepared with the same compounds, solutions, and layout; and will be combined later; Tissue culture plates were covered and placed in the 37° C. microplate chamber for 20 min.
VEGF solution was prepared: 110 l VEGF stock+10.89 ml DM=100 ng/ml VEGF
VEGF solution or DM (for reference wells) was added to the tissue culture plates, 25 μl/well.
Tissue culture plates were covered and placed in the 37° C. microplate chamber for 10 min.
RIPA buffer was prepared (240 l NaVO3 stock+240 l PIC stock+24 l NaF stock+23.496 ml RIPA base) and added to the tissue culture plates, 50 µl/well.
Tissue culture plates were covered and placed on a Labline plate shaker for 10 min (speed about 5).
Assay plates were washed twice with PBST.
Cell lysates from matching wells of each pair of tissue culture plates were combined to =200 µl/well, and were pipetted up and down to mix. Cell lysates were transferred to the assay plates using the same layouts, 170 µl/well.
Assay plates were covered with plate sealers and placed on a Labline plate shaker for 2 hr (speed about 5).
Assay plates were washed 5 times with PBST.
Biotin antibody solution was prepared (16 l biotin antibody stock+32 ml PBST=2000× dilution) and added to the assay plates, 150 µl/well.
Assay plates were covered with plate sealers and placed on a Labline plate shaker for 90 min
Streptavidin-HRP solution was prepared (16 l streptavidin-HRP stock+32 ml PBST=2000× dilution) and added to the assay plates, 150 µl/well.
Assay plates were covered with plate sealers and placed on a Labline plate shaker for 60 min
Substrate was added to the assay plates, 100 µl/well.
As assay plates developed, the plates were each monitored on a Molecular Devices Spectramax set to 650 nm, until the signal in the high control wells was around 0.6 OD and the signal in the negative control wells was around 0.1-0.15 OD.
Stop solution was added to the assay plates, 100 µl/well.
The plates were read on a Molecular Devices Spectramax set to 450 nm.
Data was calculated by Assay Explorer, using same-plate high control wells as 0% and reference standard wells as 100% inhibition of KDR phosphorylation. IC50 values were calculated by non-linear regression analysis of the concentration response data.
Target sequence in this assay (P35968 20-1356): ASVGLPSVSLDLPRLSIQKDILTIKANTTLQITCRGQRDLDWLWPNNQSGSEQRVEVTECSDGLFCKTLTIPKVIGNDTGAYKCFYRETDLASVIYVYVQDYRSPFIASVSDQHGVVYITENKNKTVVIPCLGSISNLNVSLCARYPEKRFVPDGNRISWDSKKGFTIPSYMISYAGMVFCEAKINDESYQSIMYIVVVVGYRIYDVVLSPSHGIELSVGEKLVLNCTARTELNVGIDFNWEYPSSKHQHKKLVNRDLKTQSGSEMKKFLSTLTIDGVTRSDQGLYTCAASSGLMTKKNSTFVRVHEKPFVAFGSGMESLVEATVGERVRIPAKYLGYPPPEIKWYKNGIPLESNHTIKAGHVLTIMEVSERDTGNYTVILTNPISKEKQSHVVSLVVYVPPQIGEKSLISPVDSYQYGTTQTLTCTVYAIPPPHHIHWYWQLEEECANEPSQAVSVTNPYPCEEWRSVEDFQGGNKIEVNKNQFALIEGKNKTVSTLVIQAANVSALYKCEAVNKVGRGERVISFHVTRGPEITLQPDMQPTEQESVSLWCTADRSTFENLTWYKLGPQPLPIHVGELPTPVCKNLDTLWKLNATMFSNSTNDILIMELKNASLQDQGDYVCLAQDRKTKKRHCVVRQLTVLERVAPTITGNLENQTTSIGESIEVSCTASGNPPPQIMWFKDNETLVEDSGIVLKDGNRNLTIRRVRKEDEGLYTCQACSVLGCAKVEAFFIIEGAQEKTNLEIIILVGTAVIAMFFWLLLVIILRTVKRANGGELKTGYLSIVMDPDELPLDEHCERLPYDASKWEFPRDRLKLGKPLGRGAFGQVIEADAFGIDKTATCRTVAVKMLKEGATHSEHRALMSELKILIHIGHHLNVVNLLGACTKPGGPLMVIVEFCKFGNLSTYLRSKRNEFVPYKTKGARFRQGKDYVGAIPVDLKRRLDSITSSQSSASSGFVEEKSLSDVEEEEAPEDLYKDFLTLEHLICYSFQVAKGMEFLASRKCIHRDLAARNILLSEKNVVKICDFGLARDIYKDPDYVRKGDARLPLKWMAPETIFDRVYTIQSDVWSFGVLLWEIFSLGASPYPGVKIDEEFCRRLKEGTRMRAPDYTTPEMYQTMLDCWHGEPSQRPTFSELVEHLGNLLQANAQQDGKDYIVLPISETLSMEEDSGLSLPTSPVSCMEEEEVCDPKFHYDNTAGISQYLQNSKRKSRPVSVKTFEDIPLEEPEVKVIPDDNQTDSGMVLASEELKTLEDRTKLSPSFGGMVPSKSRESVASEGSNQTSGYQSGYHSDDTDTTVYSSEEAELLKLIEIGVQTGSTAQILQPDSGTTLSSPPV

[2] = target: T1, KDR; test: KDR HTRF in vitro kinase assay; type: biochemical; parameters: purified enzyme (His6-KDR 789-1354, MW 63 kD); His6 (N); settings: 1 mM ATP; read-out: KDR enzyme inhibition data (Ki)
How it was run: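 His6-KDR 789-1354 (7 ng/well) with 0.5 μM biotinylated peptide substrate and 1 mM ATP in HEPES pH 7.1, MgCl2/MnCl2, 60 min at room temperature. EDTA-quenched, detected by streptavidin-XL-665 plus Eu-kryptate anti-phosphotyrosine HTRF after 3 h; IC50 from 620/665 nm ratio.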
Target sequence in this assay (P35968 789-1354): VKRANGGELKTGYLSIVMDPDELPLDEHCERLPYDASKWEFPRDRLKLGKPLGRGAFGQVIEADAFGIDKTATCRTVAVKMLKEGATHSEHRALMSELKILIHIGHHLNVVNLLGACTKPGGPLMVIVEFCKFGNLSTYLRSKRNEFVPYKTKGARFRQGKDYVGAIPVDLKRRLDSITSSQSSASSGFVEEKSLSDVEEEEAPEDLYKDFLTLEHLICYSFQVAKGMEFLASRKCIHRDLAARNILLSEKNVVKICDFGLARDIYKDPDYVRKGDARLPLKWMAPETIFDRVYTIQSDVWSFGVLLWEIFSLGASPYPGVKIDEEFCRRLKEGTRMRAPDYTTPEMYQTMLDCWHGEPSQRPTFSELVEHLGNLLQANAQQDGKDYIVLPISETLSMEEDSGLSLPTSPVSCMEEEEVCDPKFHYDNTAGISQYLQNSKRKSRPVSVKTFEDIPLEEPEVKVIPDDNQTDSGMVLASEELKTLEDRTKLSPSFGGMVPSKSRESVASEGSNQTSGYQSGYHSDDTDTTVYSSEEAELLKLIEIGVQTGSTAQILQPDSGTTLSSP

[3] = target: T2, Aurora A (Homo sapiens, UniProt O14965); test: Aurora A enzyme inhibition (time-resolved fluorescence, STK substrate-2); type: biochemical; settings: 1 mM ATP
T2 sequence (O14965 1-403): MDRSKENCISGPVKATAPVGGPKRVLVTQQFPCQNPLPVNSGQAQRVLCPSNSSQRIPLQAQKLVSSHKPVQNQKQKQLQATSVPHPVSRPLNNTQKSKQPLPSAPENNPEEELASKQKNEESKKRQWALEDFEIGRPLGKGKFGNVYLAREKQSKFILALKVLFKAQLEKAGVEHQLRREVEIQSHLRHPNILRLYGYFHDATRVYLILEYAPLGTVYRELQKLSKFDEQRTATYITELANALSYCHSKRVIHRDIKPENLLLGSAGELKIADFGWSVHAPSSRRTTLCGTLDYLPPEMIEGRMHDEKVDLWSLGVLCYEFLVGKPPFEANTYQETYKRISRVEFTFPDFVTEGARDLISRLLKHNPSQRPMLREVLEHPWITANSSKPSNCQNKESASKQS
How it was run: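 Active enzyme incubated 1 h with biotinylated STK substrate-2, 1 mM ATP and inhibitor in Hepes pH 7.4 with MgCl2, orthovanadate and Triton X-100. EDTA stop; phosphopeptide detected by Eu-cryptate anti-phospho-STK/SA-XL665 TR-FRET (665/615 nm ratio); IC50 by exponential fit.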

[4] = target: T3, Aurora B (Homo sapiens, UniProt Q96GD4); test: Aurora B enzyme inhibition (time-resolved fluorescence, histone H3 peptide); type: biochemical; settings: 1 mM ATP
T3 construct: Active Aurora B enzyme (recombinant residues 1-344)
How it was run: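 Recombinant Aurora B (residues 1-344) with GST-INCENP phosphorylated biotinylated histone H3 (1-21) peptide at 1 mM ATP in HEPES pH 7.4 with MgCl2, orthovanadate and Triton X-100 for 1 h. After EDTA stop, the phosphopeptide was detected by TR-FRET (Eu-cryptate anti-phospho-H3 / SA-APC, 665/615 nm ratio). IC50 from an exponential fit.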

T3 sequence (Q96GD4 whole entry, the tested form may be a part): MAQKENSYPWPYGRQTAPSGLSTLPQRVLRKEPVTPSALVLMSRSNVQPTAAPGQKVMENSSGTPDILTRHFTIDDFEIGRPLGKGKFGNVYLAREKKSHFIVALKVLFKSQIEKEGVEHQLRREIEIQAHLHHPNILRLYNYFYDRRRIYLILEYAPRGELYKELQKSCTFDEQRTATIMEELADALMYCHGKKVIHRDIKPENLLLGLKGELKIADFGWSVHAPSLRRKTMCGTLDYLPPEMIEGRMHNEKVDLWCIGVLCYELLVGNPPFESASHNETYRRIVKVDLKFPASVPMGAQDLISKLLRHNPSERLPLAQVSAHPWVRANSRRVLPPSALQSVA
T3 sequence (Q9NQS7 826-918 partner limits assumed): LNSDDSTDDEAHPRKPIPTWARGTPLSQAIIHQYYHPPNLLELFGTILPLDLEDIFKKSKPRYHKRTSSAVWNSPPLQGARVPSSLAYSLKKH

| SMILES | IC50 [1] [nM] | Ki [2] [nM] | Ki [3] [nM] | Ki [4] [nM] |
| --- | --- | --- | --- | --- |
| CC(C)NC(=O)[C@@H]1CCC[C@@H]1Nc1nc(Nc2cnn(C)c2)ncc1Cl.CC(C)NC(=O)[C@H]1CCC[C@H]1Nc1nc(Nc2cnn(C)c2)ncc1Cl (mixture of isomers) [Example 156, (1S,2R)-2-({5-chloro-2-[(1-methyl-1H-pyrazol-4-yl)amino]pyrimidin-4-yl}amino)-N-isopropylcyclopentanecarboxamide and (1R,2S)-2-({5-chloro-2-[(1-methyl-1H-pyrazol-4-yl)amino]pyrimidin-4-yl}amino)-N-isopropylcyclopentanecarboxamide] | 100 to 1000 | 100 to 1000 | < 100 | < 100 |
| Cc1nn(C)c(C)c1Nc1ncc(Br)c(N[C@H]2[C@@H](C(N)=O)[C@@H]3C=C[C@H]2C3)n1 [Example 128, (1S,2S,3R,4R)-3-({5-bromo-2-[(1,3,5-trimethyl-1H-pyrazol-4-yl)amino]pyrimidin-4-yl}amino)bicyclo[2.2.1]hept-5-ene-2-carboxamide] | 100 to 1000 | 100 to 1000 | 100 to 1000 | 100 to 1000 |
| Cn1cc(Nc2ncc(Cl)c(Nc3ccccc3C(C)(C)O)n2)cn1 [Example 138, 2-[2-({5-chloro-2-[(1-methyl-1H-pyrazol-4-yl)amino]pyrimidin-4-yl}amino)phenyl]propan-2-ol] | 100 to 1000 | < 100 | < 100 | < 100 |
| Cn1cc(Nc2ncc(C(F)(F)F)c(Nc3sccc3C(N)=O)n2)cn1 [Example 152, 2-({2-[(1-methyl-1H-pyrazol-4-yl)amino]-5-(trifluoromethyl)pyrimidin-4-yl}amino)thiophene-3-carboxamide] | 100 to 1000 | 100 to 1000 | < 100 | < 100 |
| Cn1cc(Nc2ncc(C(F)(F)F)c(Nc3cn(C)nc3C(N)=O)n2)cn1 [Example 153, 1-methyl-4-({2-[(1-methyl-1H-pyrazol-4-yl)amino]-5-(trifluoromethyl)pyrimidin-4-yl}amino)-1H-pyrazole-3-carboxamide] | 100 to 1000 | 100 to 1000 | < 100 | < 100 |
| CC(C)NC(=O)[C@H]1CCC[C@H]1Nc1nc(Nc2cnn(CCN3CCOCC3)c2)ncc1Cl [Example 164, (1S,2R)-2-{[5-chloro-2-({1-[2-(morpholin-4-yl)ethyl]-1H-pyrazol-4-yl}amino)pyrimidin-4-yl]amino}-N-isopropylcyclopentanecarboxamide] | 100 to 1000 | 100 to 1000 | < 100 | < 100 |
| CCn1cc(Nc2ncc(Cl)c(N[C@H]3[C@@H](C(N)=O)C[C@H]4C[C@@H]3C4(C)C)n2)cn1 [Example 166, (1R,2R,3S,5R)-2-({5-chloro-2-[(1-ethyl-1H-pyrazol-4-yl)amino]pyrimidin-4-yl}amino)-6,6-dimethylbicyclo[3.1.1]heptane-3-carboxamide] | 100 to 1000 | < 100 | < 100 | < 100 |

More lines, now with the values ahead:

| IC50 [1] [nM] | Ki [2] [nM] | Ki [3] [nM] | Ki [4] [nM] | SMILES |
| --- | --- | --- | --- | --- |
| 100 to 1000 | 100 to 1000 | < 100 | < 100 | Cn1cc(Nc2ncc(Cl)c(N[C@@H]3CC=CC[C@@H]3C(N)=O)n2)cn1.Cn1cc(Nc2ncc(Cl)c(N[C@H]3CC=CC[C@H]3C(N)=O)n2)cn1 (mixture of isomers) [Example 146, (1S,6R)-6-({5-chloro-2-[(1-methyl-1H-pyrazol-4-yl)amino]pyrimidin-4-yl}amino)cyclohex-3-ene-1-carboxamide and (1R,6S)-6-({5-chloro-2-[(1-methyl-1H-pyrazol-4-yl)amino]pyrimidin-4-yl}amino)cyclohex-3-ene-1-carboxamide] |
| 100 to 1000 | < 100 | < 100 | < 100 | Cn1cc(Nc2ncc(Cl)c(N[C@@H]3CCCC[C@@H]3C(N)=O)n2)cn1.Cn1cc(Nc2ncc(Cl)c(N[C@H]3CCCC[C@H]3C(N)=O)n2)cn1 (mixture of isomers) [Example 147, (1S,2R)-2-({5-chloro-2-[(1-methyl-1H-pyrazol-4-yl)amino]pyrimidin-4-yl}amino)cyclohexanecarboxamide and (1R,2S)-2-({5-chloro-2-[(1-methyl-1H-pyrazol-4-yl)amino]pyrimidin-4-yl}amino)cyclohexanecarboxamide] |
| < 100 | < 100 | < 100 | < 100 | NC(=O)[C@@H]1[C@H](Nc2nc(Nc3cnn(CC(F)(F)F)c3)ncc2C(F)(F)F)[C@H]2C=C[C@@H]1C2 (racemic) [Example 32, (1S,2S,3R,4R)-3-{[2-{[1-(2,2,2-trifluoroethyl)-1H-pyrazol-4-yl]amino}-5-(trifluoromethyl)pyrimidin-4-yl]amino}bicyclo[2.2.1]hept-5-ene-2-carboxamide and (1R,2R,3S,4S)-3-{[2-{[1-(2,2,2-trifluoroethyl)-1H-pyrazol-4-yl]amino}-5-(trifluoromethyl)pyrimidin-4-yl]amino}bicyclo[2.2.1]hept-5-ene-2-carboxamide] |
| 100 to 1000 | 100 to 1000 | 100 to 1000 | 100 to 1000 | Cc1nn(C)c(C)c1Nc1ncc(Cl)c(N[C@H]2[C@@H](C(N)=O)[C@@H]3C=C[C@H]2C3)n1 [Example 127, (1S,2S,3R,4R)-3-({5-chloro-2-[(1,3,5-trimethyl-1H-pyrazol-4-yl)amino]pyrimidin-4-yl}amino)bicyclo[2.2.1]hept-5-ene-2-carboxamide] |
| 100 to 1000 | 100 to 1000 | < 100 | < 100 | Cn1cc(Nc2ncc(Cl)c(Nc3ccccc3C3(O)CCOCC3)n2)cn1 [Example 133, 4-[2-({5-chloro-2-[(1-methyl-1H-pyrazol-4-yl)amino]pyrimidin-4-yl}amino)phenyl]tetrahydro-2H-pyran-4-ol] |
| 100 to 1000 | < 100 | < 100 | < 100 | Cn1cc(Nc2ncc(Cl)c(Nc3ccccc3CO)n2)cn1 [Example 145, [2-({5-chloro-2-[(1-methyl-1H-pyrazol-4-yl)amino]pyrimidin-4-yl}amino)phenyl]methanol] |
